# According to patent US20250136669A1, “VHH ANTIBODY” (TEIKYO HEISEI UNIVERSITY, priority 2021, published 2025):
# Key:
# Pseudomonas aeruginosa = conditions: fraction of MIC, Non Patent Literatures 4 and 5; cited from earlier work
# [1] = system: Staphylococcus aureus ATCC25923; experiment: Colistin MIC with antibody, Staphylococcus aureus; assay type: cell-based; conditions: same in absence and presence of 10 μg/mL 4P41 LZ trimer
# Method: The minimum growth inhibitory concentration (MIC) of an antimicrobial agent was measured by a microbroth dilution method in accordance with the Clinical Laboratory Standards Institute (CLSI) guideline. The serially diluted antimicrobial agent was added to a 96-well round bottom microtiter plate (Watson Co., Ltd.) at 100 μL/well, and each bacterial strain was inoculated at 5×10^5 CFU/mL/well. As the antimicrobial agent, Aztreonam (Sigma-Aldrich), Amikacin (Sigma-Aldrich), Arbekacin (Meiji Seika Pharma Co., Ltd.), Ofloxacin (Sigma-Aldrich), colistin (Sigma-Aldrich), and Polymyxin B (Sigma-Aldrich) were used. Synergistic effect of an antibody and an antimicrobial agent was evaluated using a checkerboard dilution method. Each of the antimicrobial agents was serially two-fold diluted in the vertical direction in a 96-well round bottom titer plate to concentrations between 0.125 to 2 times the MIC. Subsequently, an antibody was serially two-fold diluted in the horizontal direction of the plate in a range of 0 to 10 μg/mL or 0 to 20 μg/mL. Each bacterial strain was inoculated at 5×10^5 CFU/mL/well.
# A multidrug-resistant Pseudomonas aeruginosa NCGM2.S1 and drug-susceptible Pseudomonas aeruginosa PAO1 and OCR1 were cultured using Luria Bertani (LB) medium (BD) or an LB plate containing 15 g/L of agar at 37° C. […]
# [2] = system: multidrug-resistant Pseudomonas aeruginosa NCGM2.S1; experiment: Silkworm Pseudomonas aeruginosa infection model; assay type: in vivo; conditions: colistin alone administration group, probit analysis
# Method: A: Overnight culture solution of NCGM2.S1 was diluted by 100 times and cultured for 16 hours and was then injected into hemolymph of silkworms on the 2nd day of the 5th instar, and 0.05 mL of colistin was then injected into the blood. The survival rates were measured over 96 hours. […] The survival rates were measured over 96 hours. […] The survival rates were measured over 96 hours.
# Overnight culture solution of multidrug-resistant Pseudomonas aeruginosa NCGM2.S1 was diluted 100 times and was further cultured overnight. The bacterial culture solution was diluted with physiological saline (Otsuka Pharmaceutical Co., Ltd.), and 0.05 mL thereof was injected into hemolymph from the dorsal surface using a 1-mL injection syringe (Terumo Corporation) and 27-gauge syringe needle (Terumo Corporation), and the silkworm larvae were fed at 27° C. The median lethal dose was measured from the survival rate after 24 hours, and 0.05 mL of the bacteria in an amount 4 times the median lethal dose was injected to make a silkworm Pseudomonas aeruginosa infection model.
# [3] = system: ovalbumin-loop 1 peptide (loop 1 of OprM); experiment: ELISA binding of VHH monomer to loop 1 antigen; set-up: species or system Pseudomonas aeruginosa; conditions: purified monomer protein
# Method: In the anti-loop 1 VHH antibody, 0.1 M NaHCO3 (Blank), 0.1 M NaHCO3 containing […] of thyroglobulin, 0.1 M NaHCO3 containing 10 μg/mL of thyroglobulin-loop 1 peptide, or 0.1 M NaHCO3 containing 10 μg/mL of ovalbumin-loop 1 peptide was added to a 96-well immuno plate (Nunc) at 40 μL/well and was left to stand at 4° C. overnight.
# In the anti-loop 2 VHH antibody, 0.1 M NaHCO3 (Blank), 0.1 M NaHCO3 containing […] of KLH-loop 2 peptide was added to a 96-well immuno plate (Nunc) at 40 μL/well and was left to stand at 4° C. overnight. SuperBlock-PBS (Thermo Fisher Scientific) was added to the plate at 350 μL/well and left to stand at room temperature for 1 hour. After washing with 400 μL/well of PBS-T (phosphate buffer saline containing 0.05% Tween 20), 40 µL/well of SuperBlock-TBS containing 0.2 μg/mL of the VHH antibody was added thereto, followed by reaction at room temperature for 1 hour. The wells were washed with 400 μL/well of PBS-T again three times, and 40 μL/well of anti-Myc mouse monoclonal antibody 9E10 (Santa Cruz Biotechnology Inc.) diluted 500 times with SuperBlock-TBS was added thereto, followed by reaction at room temperature for 1 hour. […] Subsequently, absorbance at 450 nm was measured, and the average and standard deviation were calculated of triplicate or quadruplicate measurement.
# [4] = system: multidrug-resistant Pseudomonas aeruginosa strain NCGM2.S1; experiment: Drug susceptibility test (MIC, microbroth dilution, CLSI) with antibody added; assay type: cell-based; conditions: NCGM2.S1, antibody 10 μg/mL, FIG. 14B
# Method: B: MIC of colistin in the presence of an antibody. The MIC of colistin in the presence of each antibody in NCGM2.S1 was measured by a microbroth dilution method in accordance with the CLSI guideline. […] As the negative control, a 4P6 trimer which is a human TRAIL-R1 VHH trimer was used.
# The minimum growth inhibitory concentration (MIC) of an antimicrobial agent was measured by a microbroth dilution method in accordance with the Clinical Laboratory Standards Institute (CLSI) guideline. The serially diluted antimicrobial agent was added to a 96-well round bottom microtiter plate (Watson Co., Ltd.) at 100 μL/well, and each bacterial strain was inoculated at 5×10^5 CFU/mL/well. As the antimicrobial agent, Aztreonam (Sigma-Aldrich), Amikacin (Sigma-Aldrich), Arbekacin (Meiji Seika Pharma Co., Ltd.), Ofloxacin (Sigma-Aldrich), colistin (Sigma-Aldrich), and Polymyxin B (Sigma-Aldrich) were used. Synergistic effect of an antibody and an antimicrobial agent was evaluated using a checkerboard dilution method. Each of the antimicrobial agents was serially two-fold diluted in the vertical direction in a 96-well round bottom titer plate to concentrations between 0.125 to 2 times the MIC. Subsequently, an antibody was serially two-fold diluted in the horizontal direction of the plate in a range of 0 to 10 μg/mL or 0 to 20 μg/mL. Each bacterial strain was inoculated at 5×10^5 CFU/mL/well. […]
molecule,measurement,setting,value
"c1ccc2c(CN3CCNCC3)cccc2c1 [NMP, 1-(1-naphthylmethyl)-piperazine]",decrease of the MIC value of an antimicrobial agent in Pseudomonas aeruginosa,Pseudomonas aeruginosa,⅛
c1ccc2c(c1)Nc1ccccc1S2 [phenothiazine],decrease of the MIC value of an antimicrobial agent in Pseudomonas aeruginosa,Pseudomonas aeruginosa,⅛
colistin,MIC of colistin in Staphylococcus aureus,[1],> 128 µg/mL
same,therapeutically effective dose ED50 of colistin,[2],124 μg/g body weight
"4P94 monomer: anti-loop 1 VHH antibody from alpaca, monomer with cMyc-Tag and His-Tag (protein, left off: small tags and cut ends, anti-loop 1 VHH antibody from alpaca, monomer with cMyc-Tag and His-Tag) VHH: EVQLVESGGGLVQAGNSLKLSCVVSGRTLRNYAMGWFRQAPLKEREFVAAIGWTTGTASYGTPTYSDSVKGRFTISRDNAGNTLYLLMNNLKPEDTAVYYCAAGLIGYFGDRISSASVYDGWGQGTQVTVSS",binding to ovalbumin-loop 1 peptide,[3],specifically bound
same,"change in MIC of colistin, antibody added at 10 μg/mL",[4],¼
